Measurements as given in patent US20250195604A1, “Compositions and Methods of Treatment of Certain Vasculitis Syndromes” (Soligenix, Inc., priority 2023, published 2025).
Entries after “also recorded” stand apart in the source; their conditions may differ. Read-outs that look alike come from different tables or passages of the source. No end group written: not given here.

What was measured:
[1] = tested on: human blood challenged with LPS; experiment: LPS challenge of human blood exposed to dusquetide in vitro; format: cell-based; conditions: dusquetide exposure in vitro
From the text: (§1) The innate immune system involves numerous cell types distributed throughout the body in both circulating and tissue-resident compartments. The interaction of all the cells defines the aggregate response. […] Nevertheless, cellular and molecular studies with individual cell types or sub-groups of cell types are informative but must be interpreted cautiously when used to predict the behavior of the system in vivo. […] By contrast, when dusquetide exposure of either mouse or human blood occurs in vitro, although the TNFα response to LPS challenge is unaffected, the MCP-1 response is reduced. The responses of mouse and human primary blood cells to dusquetide in this in vitro setting are quantitatively and qualitatively similar.

[2] = tested on: mouse blood cells challenged with LPS; experiment: Ex vivo LPS challenge of mouse blood cells after in vivo dusquetide
From the text: as §1
(§2) Further studies have explored the ability of blood cells to respond to a pathogen (or pathogen-like) challenge in vitro after prior exposure to dusquetide in vivo—an “ex vivo” test system that provides information about the “responsiveness” of the innate defense system. The responsiveness of mouse and NHP innate defense systems have been characterized by measuring changes in cytokine and chemokine production following ex vivo challenge of blood cells with LPS. In general, no evidence of broad-spectrum activation was observed.

[3] = tested on: MRSA; conditions: mouse, in vivo
[4] = tested on: dextran sulphate sodium (DSS)-induced colitis; parameters: species or system male C57BL/6 mice; conditions: mouse, in vivo
[5] = tested on: MRSA; experiment: IV MRSA challenge model (bacteremia) in mice
[6] = tested on: dextran sulphate sodium (DSS)-induced colitis; conditions: Kudrimoti 2016, levels comparative to maximal steroid use; cited from earlier work
[7] = tested on: mouse macrophage-like cell line; conditions: medium of dusquetide-incubated splenocytes, North 2016; cited from earlier work
[8] = tested on: cytokine and chemokine levels; experiment: Circulating cytokine and chemokine levels in NHPs; format: in vivo, NHP
[9] = target: p62 (Homo sapiens, UniProt Q13501); conditions: Yu 2009; cited from earlier work
[10] = tested on: MRSA; experiment: MRSA infection in athymic nude mice; format: in vivo
[11] = tested on: NHP blood cultured with LPS; experiment: Ex vivo LPS challenge of NHP blood after in vivo dusquetide; conditions: for IL-1β response to LPS / MIP-la response to LPS: NHP
From the text: as §2

[12] = tested on: mouse primary cell cultures; conditions: North 2016; cited from earlier work
[13] = tested on: severe oral mucositis (SOM); experiment: Phase 3 study IDR-OM-02, oral mucositis in head and neck cancer patients receiving chemoradiation; format: in vivo, human; conditions: 1.5 mg/kg twice per week
Protocol: Subsequently a Phase 3 international study (Study IDR-OM-02) evaluated dusquetide in the treatment of […] in head and neck cancer patients receiving concomitant chemoradiation therapy (at least 55 Gy radiation therapy and 80 to 100 mg/m2 cisplatin received every third week). 266 patients were enrolled in the randomized, blinded and placebo-controlled study assessing treatment with 1.5 mg/kg dusquetide administered twice per week as a 4-minute infusion.

[14] = tested on: severe oral mucositis (SOM); experiment: Phase 2 study of oral mucositis in head and neck cancer patients receiving radiation and cisplatin (IDR-OM-01); format: in vivo, human
Protocol: The Phase 2 study was designed to examine the effects of dusquetide on ameliorating OM in patients with oral or oropharyngeal squamous cell carcinoma who were undergoing therapy with fractionated radiation (2.0-2.2 Gy per day for a total planned cumulative dose of 55-75 Gy) and chemotherapy with cisplatin given either as “low dose” (30-40 mg/m2 every week) or as “high dose” or “aggressive” cisplatin (80-100 mg/m2 given every 3 weeks). Dusquetide was evaluated in this dose ranging study at doses of 1.5, 3.0 (3 patients only) and 6.0 mg/kg.

[15] = tested on: severe oral mucositis (SOM); conditions: cited from earlier work; for overall infection rate: Kudrimoti 2016
[16] = tested on: human epithelial cell lines; experiment: Signalling after dusquetide exposure in human epithelial cell lines; format: cell-based
[17] = target: sequestosome-1, also known as p62 (Homo sapiens, UniProt Q13501); conditions: Yu 2009, Zhang 2022; cited from earlier work
[18] = tested on: cytokine or chemokine levels; experiment: Circulating cytokine and chemokine levels in normal mice; format: in vivo, mouse
[19] = tested on: human primary cell cultures; conditions: North 2016; cited from earlier work
[20] = tested on: MRSA, S. aureus, K. pneumoniae, B. pseudomallei; conditions: mouse, in vivo; cited from earlier work
[21] = tested on: bacterial challenge; experiment: Bacterial challenge in mice rendered leukopenic by cyclophosphamide; format: in vivo, mouse
[22] = tested on: NFKB; experiment: NFKB activation on dusquetide binding to p62; format: cell-based
[23] = dusquetide in vivo before culture
[24] = longer term, 12-24 h after administration
[25] = short term, 1 to 4 h after administration, modest
[26] = 1.5 mg/kg, all patients, vs placebo
[27] = 1.5 mg/kg, every 3rd week cisplatin subpopulation
[28] = 1.5 mg/kg, every 3rd week cisplatin subpopulation, vs placebo

Chain of p62 (Q13501 whole entry): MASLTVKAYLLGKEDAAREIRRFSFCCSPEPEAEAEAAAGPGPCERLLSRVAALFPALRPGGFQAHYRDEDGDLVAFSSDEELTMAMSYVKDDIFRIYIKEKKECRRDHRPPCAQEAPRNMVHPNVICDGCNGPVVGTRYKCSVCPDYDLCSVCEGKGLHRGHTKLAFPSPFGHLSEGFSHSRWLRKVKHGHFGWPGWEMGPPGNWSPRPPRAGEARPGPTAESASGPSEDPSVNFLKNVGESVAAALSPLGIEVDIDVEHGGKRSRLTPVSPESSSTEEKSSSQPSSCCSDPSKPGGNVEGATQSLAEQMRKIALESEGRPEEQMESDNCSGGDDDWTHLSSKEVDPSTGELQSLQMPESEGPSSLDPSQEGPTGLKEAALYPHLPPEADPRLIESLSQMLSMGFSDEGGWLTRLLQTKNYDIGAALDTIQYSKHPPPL
Chain of sequestosome-1, also known as p62 (Q13501 whole entry): as above

In the case of “RIVPA-NH2 [dusquetide, L-arginyl-L-isoleucyl-L-valyl-L-prolyl-L-alanine-amide]”, the “MCP-1 response to LPS challenge” value [1] is reported as “reduced”, the “TNFα response to LPS challenge” value [1] is reported as “unaffected” and the “ex vivo MCP-1 response to LPS” value [2, 23] is reported as “increases”. For the same substance, the “ex vivo TNFα response to LPS” value [2, 23] was “decreases”, the “responses of most analytes (58 cytokines and chemokines) to LPS” value [2, 23] was “insignificant changes” and the “ex vivo MCP-3 response to LPS” value ([2]; dusquetide in vivo vs saline) was “increases”. For the same substance, the “swelling of abraded skin” value [3] was “reduced”, the “ulceration of abraded skin” value [3] was “reduced” and the “degree of response compared with 3 mg/kg prednisolone of 0.5 mg/kg budesonide” value [4] was “similar”. For the same substance, the “relation to antibiotic administration” value ([5]; IV, therapeutic or prophylactic administration) was “complementary to antibiotic administration”, the “IV dose at which efficacy is consistently seen” value ([5]; mice, IV) was “greater than or equal to 5 mg/kg” and the “duration of PD effects of a single dose” value ([5]; mice, depending on the dose level) was “up to 5 days”. The circulating half-life ([5]; mouse, in vivo) was “short”, the “protection of the lower GI” value [6] was “further protection” and the “IL-6 response of macrophage cell line” value [7] was “suppressing”. The “IL-10 response of macrophage cell line” value [7] was “suppressing”, the “TNFα response of macrophage cell line” value [7] was “suppressing” and the MCP-1 levels ([8]; NHP, transient) was “modest changes”. The IL-1ra level ([8]; NHPs) was “marked but variable increase”, the “levels of most cytokines and chemokines” value ([8]; NHPs) was “no substantial changes” and the “p62 interaction with PKCS” value [9] was “no effect”. The “p62 interaction with RIP1” value [9] was “selectively alters”, the “p62 interaction with TRAF6” value [9] was “no effect” and the survival [10] was “survival benefit”. The “IL-1β response to LPS” value [11, 24] was “mild elevations”, the “MIP-la response to LPS” value [11, 24] was “mild elevations” and the “IL-1β response to LPS” value [11, 25] was “decreases”. The “MIP-la response to LPS” value [11, 25] was “decreases”, the “IL-1ra response to LPS” value ([11]; blood from dusquetide-treated NHP) was “marked increase” and the “responses of most analytes (47 cytokines and chemokines) to LPS” value ([11]; primate, dusquetide in vivo before culture) was “insignificant changes”. For the same substance, the “expression patterns of chemokines such as MCP-1” value [12] was “modulated”, the “response in duration of SOM” value ([13]; intent to treat (ITT) population) was “not” and the “response in duration of SOM” value ([13]; per protocol (PP) population) was “statistically significant response”. The “median duration of SOM” value ([14]; 1.5 mg/kg, all patients) was 9 days, the “reduction in median duration of SOM vs placebo” value ([14]; 1.5 mg/kg, all patients) was 50% and the “reduction in median AUC for the WHO Grade-time calculation” value [14, 26] was 39%. The “reduction in the incidence of SOM” value [14, 26] was 7%, the “decrease in median duration of SOM vs placebo” value [14, 27] was 67% and the “median duration of SOM” value [14, 27] was 10 days. For the same substance, the onset of disease [14, 27] was “no impact”, the “reduction in median AUC WHO Grade-time calculation” value [14, 28] was 51% and the “relative reduction in incidence of SOM” value [14, 28] was 18%. The “AUC (WHO Grade-time)” value ([14]; 1.5 mg/kg, weekly cisplatin) was 10.5, the “decrease in median duration of SOM vs placebo” value ([14]; 1.5 mg/kg, weekly cisplatin) was 50% and the “median duration of SOM” value ([14]; 1.5 mg/kg, weekly cisplatin) was 5 days. The “reduction in the AUC vs placebo” value ([14]; 1.5 mg/kg, weekly cisplatin) was 55%, the most efficacious dose ([14]; dose ranging 1.5, 3.0 and 6.0 mg/kg) was 1.5 mg/kg and the “formulation of oral ulcers” value ([15]; Kudrimoti 2016, Kudrimoti 2017) was “suppress”. The overall infection rate [15] was “reduction”, the overall infection rate ([15]; listed as Dusquetide) was “decreasing” and the C/EBPB activation [16] was “transient activation”. The “p38 MAP kinase activation” value [16] was “transient activation”, the “binding to sequestosome-1 (p62)” value [17] was “bind (but not inhibit); also recorded: binds” and the “cytokine or chemokine levels” value [18] was “no changes”. The “expression patterns of chemokines such as MCP-1” value [19] was “modulated”, the bacterial growth [20] was “reduced bacterial growth” and the survival [20] was “increased survival”. The survival [21] was “survival benefit” and the “activation of NFKB” value [22] was “does not cause persistent activation”.
